ChEMBL document CHEMBL4507268 (2021)

How the values were obtained:
[1] = target: D(1A) dopamine receptor (Homo sapiens) (UniProt P21728); settings: Compound concentration 10.0 uM
[2] = target: Misshapen-like kinase 1 (Homo sapiens) (UniProt Q8N4C8); settings: Compound concentration 1.0 uM
[3] = target: ALK tyrosine kinase receptor (Homo sapiens) (UniProt Q9UM73); settings: Compound concentration 1.0 uM
[4] = target: T1, Ephrin type-A receptor 3 (Homo sapiens) (UniProt P29320); settings: Compound concentration 1.0 uM
T1 sequence (whole entry): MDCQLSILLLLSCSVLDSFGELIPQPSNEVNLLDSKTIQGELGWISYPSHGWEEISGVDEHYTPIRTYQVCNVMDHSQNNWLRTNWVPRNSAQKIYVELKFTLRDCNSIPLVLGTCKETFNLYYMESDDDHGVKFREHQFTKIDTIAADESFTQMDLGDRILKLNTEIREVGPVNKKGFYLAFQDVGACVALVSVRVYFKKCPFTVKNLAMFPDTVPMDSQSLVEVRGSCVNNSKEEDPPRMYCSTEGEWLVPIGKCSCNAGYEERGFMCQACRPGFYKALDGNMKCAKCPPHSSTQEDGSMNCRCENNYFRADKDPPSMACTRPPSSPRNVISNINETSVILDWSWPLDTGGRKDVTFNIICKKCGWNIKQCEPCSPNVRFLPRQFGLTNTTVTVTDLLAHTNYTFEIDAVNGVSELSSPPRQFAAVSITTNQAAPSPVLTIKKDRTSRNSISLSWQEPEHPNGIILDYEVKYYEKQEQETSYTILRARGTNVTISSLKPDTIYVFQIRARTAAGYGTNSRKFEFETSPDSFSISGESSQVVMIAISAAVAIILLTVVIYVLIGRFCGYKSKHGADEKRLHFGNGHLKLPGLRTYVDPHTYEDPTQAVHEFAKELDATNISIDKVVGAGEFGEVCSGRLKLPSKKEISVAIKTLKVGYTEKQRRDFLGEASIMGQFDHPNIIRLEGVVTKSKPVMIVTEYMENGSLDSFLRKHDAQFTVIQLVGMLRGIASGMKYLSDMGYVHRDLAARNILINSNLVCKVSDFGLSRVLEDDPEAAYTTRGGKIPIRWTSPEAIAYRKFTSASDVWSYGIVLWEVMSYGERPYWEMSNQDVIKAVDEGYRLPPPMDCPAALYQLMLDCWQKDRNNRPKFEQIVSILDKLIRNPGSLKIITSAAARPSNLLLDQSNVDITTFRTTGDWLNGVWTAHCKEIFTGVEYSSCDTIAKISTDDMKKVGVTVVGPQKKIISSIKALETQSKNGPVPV

[5] = target: Tyrosine-protein kinase SYK (Homo sapiens) (UniProt P43405); settings: Compound concentration 1.0 uM
[6] = target: RAC-beta serine/threonine-protein kinase (Homo sapiens) (UniProt P31751); settings: Compound concentration 1.0 uM
[7] = target: T2, TGF-beta receptor type-1 (Homo sapiens) (UniProt P36897); settings: Compound concentration 1.0 uM
T2 sequence (whole entry): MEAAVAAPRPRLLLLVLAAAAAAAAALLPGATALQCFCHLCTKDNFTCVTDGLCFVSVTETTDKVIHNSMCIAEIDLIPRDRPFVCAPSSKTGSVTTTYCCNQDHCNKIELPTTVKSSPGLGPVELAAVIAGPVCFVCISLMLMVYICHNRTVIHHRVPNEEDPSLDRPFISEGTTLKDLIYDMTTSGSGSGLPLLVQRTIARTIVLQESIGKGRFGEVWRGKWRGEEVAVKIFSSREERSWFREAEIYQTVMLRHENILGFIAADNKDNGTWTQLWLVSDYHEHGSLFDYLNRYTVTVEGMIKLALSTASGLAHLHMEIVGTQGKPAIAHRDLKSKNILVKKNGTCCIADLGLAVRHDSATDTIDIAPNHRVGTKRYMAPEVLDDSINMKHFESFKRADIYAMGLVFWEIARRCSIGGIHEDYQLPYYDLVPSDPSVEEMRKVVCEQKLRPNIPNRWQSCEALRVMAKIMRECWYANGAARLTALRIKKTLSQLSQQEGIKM

[8] = target: Serine/threonine-protein kinase WNK2 (Homo sapiens) (UniProt Q9Y3S1); settings: Compound concentration 1.0 uM
[9] = target: Activin receptor type-1-like (Homo sapiens) (UniProt P37023); settings: Compound concentration 1.0 uM
[10] = target: T3, Dual specificity mitogen-activated protein kinase kinase 6 (Homo sapiens) (UniProt P52564); settings: Compound concentration 1.0 uM
T3 sequence (whole entry): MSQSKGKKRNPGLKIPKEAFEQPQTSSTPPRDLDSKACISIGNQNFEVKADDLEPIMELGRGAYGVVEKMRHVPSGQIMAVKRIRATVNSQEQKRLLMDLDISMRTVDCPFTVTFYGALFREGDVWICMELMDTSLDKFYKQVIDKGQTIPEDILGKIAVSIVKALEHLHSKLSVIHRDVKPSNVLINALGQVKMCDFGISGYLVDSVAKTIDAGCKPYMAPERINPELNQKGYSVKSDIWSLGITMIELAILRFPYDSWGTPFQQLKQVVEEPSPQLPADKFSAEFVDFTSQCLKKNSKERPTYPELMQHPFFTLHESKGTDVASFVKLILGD

[11] = target: Wee1-like protein kinase 2 (Homo sapiens) (UniProt P0C1S8); settings: Compound concentration 1.0 uM

Chain of Misshapen-like kinase 1 (Homo sapiens) (Q8N4C8 whole entry, looked up): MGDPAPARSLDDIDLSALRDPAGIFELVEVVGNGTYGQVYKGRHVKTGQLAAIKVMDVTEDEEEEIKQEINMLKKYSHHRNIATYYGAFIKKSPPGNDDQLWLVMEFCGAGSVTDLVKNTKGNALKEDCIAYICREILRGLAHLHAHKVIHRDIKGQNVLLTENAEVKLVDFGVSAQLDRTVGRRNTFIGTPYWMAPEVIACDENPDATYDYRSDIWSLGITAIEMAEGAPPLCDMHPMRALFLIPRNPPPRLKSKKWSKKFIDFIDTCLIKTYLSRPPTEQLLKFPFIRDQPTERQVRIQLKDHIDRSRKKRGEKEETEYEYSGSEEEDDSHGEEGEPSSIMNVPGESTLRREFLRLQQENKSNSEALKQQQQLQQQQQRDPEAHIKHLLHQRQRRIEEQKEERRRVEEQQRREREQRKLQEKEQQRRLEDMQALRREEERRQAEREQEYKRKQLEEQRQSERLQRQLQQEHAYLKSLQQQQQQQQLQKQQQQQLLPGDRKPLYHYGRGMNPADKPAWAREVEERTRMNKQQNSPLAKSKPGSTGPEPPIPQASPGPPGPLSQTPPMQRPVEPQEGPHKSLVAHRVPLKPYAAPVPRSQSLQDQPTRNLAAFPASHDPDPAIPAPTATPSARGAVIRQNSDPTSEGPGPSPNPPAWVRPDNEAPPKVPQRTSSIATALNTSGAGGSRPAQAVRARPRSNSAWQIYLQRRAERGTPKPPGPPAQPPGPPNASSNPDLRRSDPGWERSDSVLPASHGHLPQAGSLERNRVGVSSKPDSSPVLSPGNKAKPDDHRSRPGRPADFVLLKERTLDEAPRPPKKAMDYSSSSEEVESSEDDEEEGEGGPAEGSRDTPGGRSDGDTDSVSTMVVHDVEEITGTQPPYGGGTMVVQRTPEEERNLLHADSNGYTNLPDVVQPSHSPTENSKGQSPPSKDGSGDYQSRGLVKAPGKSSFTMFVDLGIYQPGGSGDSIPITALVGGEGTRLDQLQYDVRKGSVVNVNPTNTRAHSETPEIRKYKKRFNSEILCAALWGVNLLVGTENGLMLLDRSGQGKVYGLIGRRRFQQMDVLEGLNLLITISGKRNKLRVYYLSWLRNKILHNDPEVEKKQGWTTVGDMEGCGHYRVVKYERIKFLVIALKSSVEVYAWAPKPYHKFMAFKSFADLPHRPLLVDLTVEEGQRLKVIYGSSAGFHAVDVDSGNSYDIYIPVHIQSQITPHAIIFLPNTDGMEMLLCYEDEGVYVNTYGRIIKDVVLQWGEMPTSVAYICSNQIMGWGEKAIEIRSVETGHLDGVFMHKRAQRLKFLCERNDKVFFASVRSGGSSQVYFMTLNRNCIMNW
Chain of Activin receptor type-1-like (Homo sapiens) (P37023 whole entry): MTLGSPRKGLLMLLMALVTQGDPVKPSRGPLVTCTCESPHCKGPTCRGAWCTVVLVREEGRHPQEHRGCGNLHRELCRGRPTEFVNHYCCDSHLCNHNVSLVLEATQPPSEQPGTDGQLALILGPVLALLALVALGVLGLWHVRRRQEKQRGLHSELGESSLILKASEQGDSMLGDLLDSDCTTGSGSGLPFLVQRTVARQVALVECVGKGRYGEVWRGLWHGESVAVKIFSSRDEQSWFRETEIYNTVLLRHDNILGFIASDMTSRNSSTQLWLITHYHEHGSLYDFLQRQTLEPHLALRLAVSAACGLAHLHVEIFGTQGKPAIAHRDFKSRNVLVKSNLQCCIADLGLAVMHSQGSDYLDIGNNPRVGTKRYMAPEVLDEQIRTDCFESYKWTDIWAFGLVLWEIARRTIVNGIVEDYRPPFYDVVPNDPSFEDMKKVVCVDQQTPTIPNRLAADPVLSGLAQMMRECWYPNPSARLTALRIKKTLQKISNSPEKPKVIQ
Chain of Serine/threonine-protein kinase WNK2 (Homo sapiens) (Q9Y3S1 whole entry): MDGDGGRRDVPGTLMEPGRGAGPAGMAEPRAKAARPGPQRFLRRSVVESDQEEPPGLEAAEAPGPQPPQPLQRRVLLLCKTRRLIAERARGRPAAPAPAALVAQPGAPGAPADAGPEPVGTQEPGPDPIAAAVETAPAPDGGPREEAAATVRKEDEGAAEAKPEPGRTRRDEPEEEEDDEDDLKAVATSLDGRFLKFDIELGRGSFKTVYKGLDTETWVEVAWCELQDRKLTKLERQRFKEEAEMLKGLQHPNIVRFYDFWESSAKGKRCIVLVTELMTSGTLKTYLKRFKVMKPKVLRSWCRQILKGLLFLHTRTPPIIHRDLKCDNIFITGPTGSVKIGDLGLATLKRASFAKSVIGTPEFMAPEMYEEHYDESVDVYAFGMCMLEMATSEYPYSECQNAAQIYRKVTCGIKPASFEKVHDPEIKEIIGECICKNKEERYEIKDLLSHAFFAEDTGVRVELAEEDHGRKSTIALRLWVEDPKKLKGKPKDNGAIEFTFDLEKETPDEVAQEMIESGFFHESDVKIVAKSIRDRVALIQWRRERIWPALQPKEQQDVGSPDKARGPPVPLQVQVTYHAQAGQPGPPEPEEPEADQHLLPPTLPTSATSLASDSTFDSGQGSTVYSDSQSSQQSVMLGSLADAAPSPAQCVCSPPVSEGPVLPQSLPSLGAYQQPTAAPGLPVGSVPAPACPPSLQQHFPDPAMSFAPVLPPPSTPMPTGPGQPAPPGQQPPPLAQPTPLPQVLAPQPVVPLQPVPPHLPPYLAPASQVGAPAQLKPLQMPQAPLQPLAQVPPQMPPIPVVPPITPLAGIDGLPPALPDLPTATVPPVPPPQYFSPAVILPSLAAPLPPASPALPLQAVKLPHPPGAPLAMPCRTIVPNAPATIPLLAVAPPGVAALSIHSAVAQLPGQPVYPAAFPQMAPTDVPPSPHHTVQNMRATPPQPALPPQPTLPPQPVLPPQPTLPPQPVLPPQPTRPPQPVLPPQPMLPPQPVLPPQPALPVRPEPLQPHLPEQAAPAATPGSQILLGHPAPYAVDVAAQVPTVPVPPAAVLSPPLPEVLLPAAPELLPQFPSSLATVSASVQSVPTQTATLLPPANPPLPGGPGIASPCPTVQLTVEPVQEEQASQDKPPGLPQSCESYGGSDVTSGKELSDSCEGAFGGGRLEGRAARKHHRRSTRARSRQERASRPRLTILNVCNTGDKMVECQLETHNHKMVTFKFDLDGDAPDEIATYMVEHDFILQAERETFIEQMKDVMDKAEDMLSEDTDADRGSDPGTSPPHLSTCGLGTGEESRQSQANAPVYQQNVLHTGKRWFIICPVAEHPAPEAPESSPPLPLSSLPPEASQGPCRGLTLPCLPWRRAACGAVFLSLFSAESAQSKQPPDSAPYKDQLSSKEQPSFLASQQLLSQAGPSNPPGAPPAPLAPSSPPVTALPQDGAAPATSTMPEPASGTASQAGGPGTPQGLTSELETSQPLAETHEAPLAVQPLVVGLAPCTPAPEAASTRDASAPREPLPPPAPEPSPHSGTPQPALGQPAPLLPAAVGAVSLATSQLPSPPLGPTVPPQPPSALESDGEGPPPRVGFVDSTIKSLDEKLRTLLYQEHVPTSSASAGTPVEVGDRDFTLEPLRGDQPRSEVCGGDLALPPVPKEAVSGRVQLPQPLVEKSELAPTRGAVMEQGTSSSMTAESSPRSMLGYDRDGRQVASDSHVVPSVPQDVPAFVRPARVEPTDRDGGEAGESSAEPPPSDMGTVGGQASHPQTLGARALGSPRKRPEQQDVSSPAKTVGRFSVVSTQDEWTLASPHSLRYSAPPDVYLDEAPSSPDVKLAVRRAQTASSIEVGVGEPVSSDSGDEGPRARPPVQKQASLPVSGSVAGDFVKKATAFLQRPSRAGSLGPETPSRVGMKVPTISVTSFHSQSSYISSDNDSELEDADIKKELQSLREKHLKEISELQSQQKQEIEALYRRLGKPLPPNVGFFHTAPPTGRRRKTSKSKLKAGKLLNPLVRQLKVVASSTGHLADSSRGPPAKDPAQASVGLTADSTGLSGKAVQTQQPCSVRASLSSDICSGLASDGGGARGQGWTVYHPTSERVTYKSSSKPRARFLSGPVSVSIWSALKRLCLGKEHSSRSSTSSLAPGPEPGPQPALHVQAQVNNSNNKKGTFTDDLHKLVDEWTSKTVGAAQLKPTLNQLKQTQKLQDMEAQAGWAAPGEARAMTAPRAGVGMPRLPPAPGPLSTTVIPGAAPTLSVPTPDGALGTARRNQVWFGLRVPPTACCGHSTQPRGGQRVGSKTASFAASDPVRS
Chain of D(1A) dopamine receptor (Homo sapiens) (P21728 whole entry): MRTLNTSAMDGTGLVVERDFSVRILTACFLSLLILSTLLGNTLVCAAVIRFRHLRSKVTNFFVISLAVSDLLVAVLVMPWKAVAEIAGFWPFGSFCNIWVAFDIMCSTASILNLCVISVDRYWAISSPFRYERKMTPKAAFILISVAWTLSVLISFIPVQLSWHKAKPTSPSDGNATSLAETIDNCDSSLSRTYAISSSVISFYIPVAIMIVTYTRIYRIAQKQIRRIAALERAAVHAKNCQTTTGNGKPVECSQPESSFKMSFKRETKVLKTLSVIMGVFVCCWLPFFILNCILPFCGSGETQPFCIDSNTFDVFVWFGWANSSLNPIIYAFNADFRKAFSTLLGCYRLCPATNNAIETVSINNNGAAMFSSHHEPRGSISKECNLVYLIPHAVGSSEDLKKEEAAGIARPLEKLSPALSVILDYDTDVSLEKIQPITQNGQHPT
Chain of RAC-beta serine/threonine-protein kinase (Homo sapiens) (P31751 whole entry): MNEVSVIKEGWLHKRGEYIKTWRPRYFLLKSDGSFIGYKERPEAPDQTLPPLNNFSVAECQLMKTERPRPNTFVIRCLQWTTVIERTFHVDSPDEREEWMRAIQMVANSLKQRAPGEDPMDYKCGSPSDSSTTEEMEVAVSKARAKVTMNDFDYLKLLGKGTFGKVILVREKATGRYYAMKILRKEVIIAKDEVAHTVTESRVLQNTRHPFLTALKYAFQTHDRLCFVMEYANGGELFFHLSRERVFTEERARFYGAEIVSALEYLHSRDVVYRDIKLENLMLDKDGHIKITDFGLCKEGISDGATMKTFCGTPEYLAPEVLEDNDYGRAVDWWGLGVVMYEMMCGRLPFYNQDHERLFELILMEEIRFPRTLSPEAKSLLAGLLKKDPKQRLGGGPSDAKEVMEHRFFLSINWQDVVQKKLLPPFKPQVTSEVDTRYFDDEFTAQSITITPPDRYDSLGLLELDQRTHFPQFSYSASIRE

Cc1nc(C2CCN(C(=O)c3ccc(OC(F)(F)F)cc3N)CC2)c2ncc(N3CCN(C)CC3)cc2n1 [BAY-693]
inactive: inhibition [1] 2.66%

CN1CCN(c2cnc3c(C4CCN(C(=O)c5ccc(OC(F)(F)F)cc5N)CC4)ncnc3c2)CC1 [BAY-885]
inactive: % residual kinase activity [2] 98% | % residual kinase activity [3] 121% | % residual kinase activity [4] 86% | % residual kinase activity [5] 87% | % residual kinase activity [6] 109% | % residual kinase activity [7] 81% | % residual kinase activity [8] 107% | % residual kinase activity [9] 118% | % residual kinase activity [10] 99% | % residual kinase activity [11] 124%
